Assay results from US8802240B2, “Uses of formulations of thyroid hormone analogs and nanoparticulate forms thereof to increase chemosensitivity and radiosensitivity in tumor or cancer cells” (Nanopharmaceuticals LLC, priority 2011, dated 2014).
“Also recorded” adds a separate entry of the source.

Assays:
MCF7 and MCF7/R cells = assay: Intracellular accumulation of radiolabeled doxorubicin; format: cell-based; details: 24 hours, presence vs absence of Tetrac
Protocol: (§1) FIG. 15A is a Western blofshowing the expression of P-gp, GST and SOD in wild type (W) drug sensitive and resistant (R) MCF7 cells. […] The cells were treated for 24 h with each drug alone or the combination of both, after that, expression of drug resistance molecules was determined by Western blot using specific antibodies. […] The cells were incubated for 24 hours with doxorubicin in the absence or the presence of Tetrac, after that they were washed and then solubilized. Radioactivity associated with the cell lysates was counted and compared between the two cell lines either treated or not with Tetrac. The data represent an average of 3 determinations±SE.

GL261 tumor cells = assay: GL261 44° C. hyperthermia; format: cell-based, murine; details: 44° C. plus Tetrac is the equivalent of 45° C. without Tetrac
Protocol: Additionally, Tetrac sensitizes GL261 cells in hyperthermic conditions. Graded heat treatment of GL261 tumor cells with 44° C. was given, without and with Tetrac. Tetrac increased cell killing as compared to control cells alone, by the equivalent of about 1° C. (i.e., 44° C. plus Tetrac is the equivalent of 45° C. without Tetrac). (See FIG. 63).

MDA-MB-231 cells = assay: RNA microarray of MDA-MB-231 cells; format: cell-based, human
Protocol: MDA-MB-231 cells were maintained in DMEM that was supplemented with 10% FBS in a 5% CO2/95% 02 air incubator at 37° C. For two days prior to exposure to Tetrac and nanoparticulate Tetrac, cells were maintained in 0.25% FBS that was stripped of estrogen and thyroid hormone. (See Lin et al., Biochemistry 42: 7571-7579 (2003)).
Microarray analysis experiments were conducted as described previously. (See Glinsky et al., J Clin Invest 115: 1503-1521 (2005); Glinsky et al., J Clin Invest 113: 913-923 (2004); Glinsky et al., Clin Cancer Res 10: 2272-2283 (2004); and Glinsky et al., Mol Carcinog 37: 209-221 (2003)). […] Sample purity and integrity were verified with an Agilent BioAnalyzer (Santa Clara, Calif.). Expression analysis of 54,675 transcripts for each sample was by Affymetrix HG-U133A Plus 2.0 arrays. MAS5.0 software was used for data retrieval and analysis and concordant changes of gene expression in response to unmodified Tetrac and nanoparticulate Tetrac were defined by two-tailed t test at a threshold p value<0.01.
Expression of ˜54,000 transcripts was analyzed in control and drug-treated cultures, using Affymetrix Human Genome U133 plus 2.0 microarrays. Subsequent analysis was focused on genes affected by treatment at p<0.01. There was 93% concordance between Tetrac and Tetrac NP in terms of genes affected; notable disparities included downregulation of epidermal growth factor receptor (EGFR) by Tetrac NP and no affect of unmodified Tetrac on this gene.

[1] = system: human medullary thyroid carcinoma cells; assay: Confocal distribution of Cy3-labeled Tetrac vs Tetrac NP; format: cell-based; details: around 2 h
Description: Penicillin streptomycin (1%) was present in both culture media.

GL261 cells = assay: GL261 sublethal damage repair (SLDR), split dose; format: cell-based, murine
Protocol: SLDR was measured at 10% immediate survival level as determined from the acute single dose curve for both control and Tetrac-treated cells in both growth states (i.e. exponentially growing and plateau phase cells. Flasks were irradiated with one-half of the total dose and returned to the 37° C. incubator. At increasing periods of time, flasks were removed, and given the second half of the immediate 10% survival dose. Survival was measured at 0, 0.5, 1.0, 1.5, 2.0, 3.0, 4.0, 6.0, 8.0, and 10.0 hours after the initial dose.
To investigate the effects of Tetrac on SLDR and PLDR, cells were chosen that had been given a one-hour treatment with Tetrac at two different times, i.e., at 70 and 270 hours post-seeding).

[2] = system: P-gp, GST and SOD in MCF7/R cells; assay: Western blot of classical drug resistance genes; format: cell-based; details: 24 h
Protocol: as §1

Solubility = format: physicochemical; details: required a high volume of cosolvent (DMSO)
TTR (Transthyretin) = TTR (Transthyretin) (Homo sapiens, UniProt P02766); assay: TTR displacement assay; format: binding
Description: Determination of the optimal or preferred density of the thyroid hormone or thyroid hormone analog bound to the nanoparticles is within the routine skill level in the art. For example, those skilled in the art will recognize that TTR (Transthyretin) can be used as the basis for a displacement assay in order to quantify the amount of Tetrac bound to nanoparticles. Specifically, such assays involve in vitro displacement of radiolabeled T4 from TTR by Tetrac or Tetrac nanoparticles (Tetrac NP). […] Amounts of nanoparticulate Tetrac in unknown suspensions (i.e., biologic fluids) are then calculated from the displacement of radiolabeled T4. […] The tubes are mixed and incubated for 16 hours at 4° C. The bound and free hormones are separated by adding dextran-coated charcoal (DCC) to each tube, which is then centrifuged at 12,000×g for 2 min. at 4° C. Bound [I^125] T4 in the supernatant is measured by scintillation counting.

For `O=C(O)Cc1cc(I)c(Oc2cc(I)c(O)c(I)c2)c(I)c1` [Tetrac, tetraiodothyroacetic acid], the “intracellular accumulation of radiolabeled doxorubicin (in words)” value (MCF7 and MCF7/R cells) was “increased significantly”, the “increase in cell killing, temperature equivalent” value (GL261 tumor cells) was “about 1 °C” and the “Change: BCL2L14” value (MDA-MB-231 cells) was “not a significant stimulatory action and ↑”. For the same molecule, the “Change: CASP2, Caspase 2” value (MDA-MB-231 cells) was “not a significant stimulatory action and ↑”, the “Change: CBY1, Catenin inhibitor” value (MDA-MB-231 cells) was “significantly increased and induced and ↑” and the “Change: CDKN2C, Cyclin-dependent kinase inhibitor” value (MDA-MB-231 cells) was “↑”. The “Change: CTNNA1, Catenin” value (MDA-MB-231 cells) was “↓”, the “Change: CTNNA2, Catenin” value (MDA-MB-231 cells) was “↓” and the “Change: CTSL1, Cathepsin 1” value (MDA-MB-231 cells) was “↓”. For the same molecule, the “Change: CXCL10, Anti-endothelial cell chemokine” value (MDA-MB-231 cells) was “↑”, the “Change: Cyclins, Cell cycle regulators” value (MDA-MB-231 cells) was “↓” and the “Change: EDN1, Endothelin-1” value (MDA-MB-231 cells) was “↑”. The “Change: Interleukins, Inflammatory cytokines” value (MDA-MB-231 cells) was “↓”, the “Change: MCL1, Myeloid cell leukemia-1” value (MDA-MB-231 cells) was “did not significantly affect and ↓” and the “Change: NR1D1, Nuclear receptor Rev-erbα” value (MDA-MB-231 cells) was “↓”. For the same molecule, the “Change: THBS1, Thrombospondin” value (MDA-MB-231 cells) was “strongly induced and ↑”, the “Change: XIAP, X-linked inhibitor of apoptosis protein” value (MDA-MB-231 cells) was “acted on XIAP and ↓” and the “expression of epidermal growth factor receptor (EGFR) (in words)” value (MDA-MB-231 cells) was “ineffective; also recorded: no affect”. For the same molecule, the “distribution within h-MTC cells (in words)” value [1] was “distributed in the cytoplasm”, the “repair of x-ray damage at 6 to 8 hours post-irradiation (in words)” value (GL261 cells; 2 uM, FIG. 58, control repaired by a factor of 4 to 5) was “showed no repair of x-ray damage” and the “reduction of SLDR by a factor of” value (GL261 cells; exponential cells) was 1.8. The “SLDR recovery ratio at 10 hours post-irradiation” value (GL261 cells; exponential cells, two 2.50 Gy split doses, control approximately 4 to 5) was “approximately 2.2”, the “SLDR recovery ratio at 2 hours after the first dose” value (GL261 cells; exponential cells, control approximately 2.5) was 1.8 and the “survival at 3 hours after the initial dose, relative to survival at 0 hours (fixation of damage)” value (GL261 cells; plateau phase cells with Tetrac) was “approximately 36%”. The “decrease in cellular repair (SLDR) by a factor of” value (GL261 cells; plateau phase cells, three hours post-irradiation) was ~3, the “expression of P-glycoprotein, SOD and GST-π (in words)” value [2] was “none of these genes was significantly altered” and the “half-time for Tetrac uptake” value (Tetrac uptake) was 10 to 15 min. For the same molecule, the “solubility in water (in words)” value (Solubility) was “difficult to solubilize in water” and the “affinity of TTR relative to that for T4” value (TTR (Transthyretin)) was 100 times.
